From patent publication US20260250318A1, “COMPOSITIONS AND METHODS FOR CROSSING THE BLOOD BRAIN BARRIER” (VOYAGER THERAPEUTICS, INC., priority 2022, published 2026)

Columns and labels:
Details in all cases: synthetic library passage 3, intravenous, relative to wild-type AAV9
[1] = test system: brain, spinal cord, and DRG of the NHPs; experiment: NGS fold enrichment of synthetic library (passage 3) in NHPs, first cross-species screen; type: in vivo, cynomolgus macaques (Macaca fascicularis)
In short: (§1)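 Fold enrichment versus wild-type AAV9 was derived by NGS of RT-PCR-amplified RNA from nervous tissue, collected e.g. 28 days after IV dosing […]. The library (passage 3) was given to two NHPs aged 2-4 years and to 6-8-week BALB/c and C57Bl/6 mice (n=3 each).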

[2] = test system: brain; experiment: NGS fold enrichment of synthetic library (passage 3) in C57Bl/6 mice, first cross-species screen; type: in vivo
In short: as §1

[3] = test system: brain; experiment: NGS fold enrichment of synthetic library (passage 3) in BALB/c mice, first cross-species screen; type: in vivo
In short: as §1

[4] = RNA from spinal cord of NHPs, NGS
[5] = RNA from brain of C57Bl/6 mice, NGS
[6] = RNA from brain of BALB/c mice, NGS

Row | Sequence | Fold enrichment over AAV9 in the brain of NHPs ([1]; RNA NGS, brain of NHPs) [fold] | Fold enrichment over AAV9 in the spinal cord of NHPs ([1]; RNA NGS, spinal cord of NHPs) [fold] | Fold enrichment over AAV9 in the brain of Mice (C57Bl/6) ([2]; RNA NGS, brain of C57Bl/6 mice) [fold] | Fold enrichment over AAV9 in the brain of Mice (BALB/c) ([3]; RNA NGS, brain of BALB/c mice) [fold] | Fold enrichment over AAV9 in the brain of NHPs ([1]; RNA from brain of NHPs, NGS) [fold] | Fold enrichment over AAV9 in the spinal cord of NHPs [1, 4] [fold] | Fold enrichment over AAV9 in the brain of Mice (C57Bl/6) [2, 5] [fold] | Fold enrichment over AAV9 in the brain of Mice (BALB/c) [3, 6] [fold]
1 | GSGQNQQPLDTSRT | 1.015 | 0.775 | 0.491 | 0.376 | – | – | – | –
2 | GSGQHVSVANNQQT | 1.029 | 5.734 | 0.974 | 0.577 | – | – | – | –
3 | GSGHGQVLSQNQQT | 2.213 | 12.133 | 1.880 | 0.661 | – | – | – | –
4 | GTPTSPSSGQNQQT | 1.086 | 4.558 | 0.833 | 0.662 | – | – | – | –
5 | GSSGRDMGGQNQQT | 1.778 | 2.177 | 1.052 | 0.595 | – | – | – | –
6 | GSGQNQQHHSSHTT | – | – | – | – | 1.328 | 2.158 | 0.957 | 0.452
7 | GSGSPRQLSQNQQT | 1.621 | 0.873 | 0.520 | 0.273 | – | – | – | –
8 | GSGQMQSAGSNQQT | 1.482 | 0.116 | 1.034 | 1.128 | – | – | – | –
9 | GSGQNHGVLSNQQT | 2.254 | 1.603 | 1.113 | 0.701 | – | – | – | –
10 | GNRDRPSSGQNQQT | – | – | – | – | 1.239 | 3.947 | 0.298 | 0.178
11 | GSGHAAISQQNQQT | 1.742 | 2.373 | 1.211 | 0.520 | – | – | – | –
12 | GSGQNHRPSVLQQT | 1.983 | 5.582 | 0.433 | 0.582 | – | – | – | –
13 | GSGLLPLSSQNQQT | 2.612 | 1.130 | 0.501 | 0.293 | – | – | – | –
14 | GMYEYSQSGQNQQT | 1.438 | 0.000 | 1.410 | 0.448 | – | – | – | –
15 | GSGQNQRATLSNQT | – | – | – | – | 1.339 | 1.084 | 0.947 | 0.723
16 | GSGLKPNVLQNQQT | – | – | – | – | 1.263 | 0.975 | 0.701 | 0.268

Row | Sequence | Fold enrichment over AAV9 in the brain of NHPs ([1]; RNA NGS, brain of NHPs) [fold] | Fold enrichment over AAV9 in the spinal cord of NHPs ([1]; RNA NGS, spinal cord of NHPs) [fold] | Fold enrichment over AAV9 in the brain of Mice (C57Bl/6) ([2]; RNA NGS, brain of C57Bl/6 mice) [fold] | Fold enrichment over AAV9 in the brain of Mice (BALB/c) ([3]; RNA NGS, brain of BALB/c mice) [fold] | Fold enrichment over AAV9 in the brain of NHPs ([1]; RNA from brain of NHPs, NGS) [fold] | Fold enrichment over AAV9 in the spinal cord of NHPs [1, 4] [fold] | Fold enrichment over AAV9 in the brain of Mice (C57Bl/6) [2, 5] [fold] | Fold enrichment over AAV9 in the brain of Mice (BALB/c) [3, 6] [fold]
17 | GSGQNQHSAPNSQT | 2.134 | 4.143 | 1.187 | 0.731 | – | – | – | –
18 | GSGQNARLKDNQQT | – | – | – | – | 1.354 | 2.395 | 0.580 | 0.938
19 | GSAQVSMVGQNQQT | 1.601 | 1.332 | 0.500 | 0.285 | – | – | – | –
20 | GSGHMTYREKNQQT | 2.633 | 5.267 | 1.257 | 0.540 | – | – | – | –
21 | GSGQNPIRGAMQQT | – | – | – | – | 1.126 | 1.327 | 1.296 | 0.427
22 | GSGQNQRASILVQT | – | – | – | – | 1.162 | 3.632 | 0.531 | 0.569
23 | GVVAHQPSGQNQQT | 2.103 | 0.152 | 0.910 | 2.267 | – | – | – | –
24 | GGGDLGRSSQNQQT | 3.036 | 4.830 | 0.916 | 0.539 | – | – | – | –
25 | GGQVAPSSGQNQQT | 2.581 | 2.427 | 1.433 | 0.709 | – | – | – | –
26 | GSGQIKGKMDNQQT | 1.654 | 2.601 | 1.065 | 1.012 | – | – | – | –
27 | GSGQNQQTVSRQST | 1.820 | 0.472 | 1.330 | 0.796 | – | – | – | –
28 | GSGQNQQASLAMRT | 1.910 | 3.577 | 2.066 | 1.638 | – | – | – | –
29 | GSGQNQQSNWITKT | 2.711 | 0.000 | 0.540 | 0.634 | – | – | – | –
30 | GSGAVHLTAQNQQT | – | – | – | – | 1.306 | 1.668 | 0.541 | 0.466
31 | GSGQTRQMKDNQQT | 1.530 | 11.079 | 0.841 | 0.214 | – | – | – | –
32 | GSGQTSGLKQNQQT | 1.968 | 3.927 | 0.394 | 0.334 | – | – | – | –
